Legend:
[1] = tested on: Botryotinia fuckeliana (Botrytis cinerea); experiment: Botryotinia fuckeliana (Botrytis cinerea) / liquid culture (gray mould); format: cell-based; settings: Vogels broth, 96-well plate, 24° C., 3-4 days after application, read-out: control of Botryotinia fuckeliana (inhibition of growth, photometric)
[2] = tested on: Mycosphaerella graminicola (Septoria tritici); experiment: Mycosphaerella graminicola (Septoria tritici) / liquid culture (Septoria blotch); format: cell-based; settings: Zymoseptoria tritici, PDB potato dextrose broth, 96-well plate, 24° C., 4-5 days after application, read-out: control of Mycosphaerella graminicola (inhibition of growth, photometric)
[3] = tested on: Magnaporthe grisea (Pyricularia oryzae); experiment: whole plant or invertebrate; format: in vivo; settings: foliar, read-out: control of Magnaporthe grisea (percent disease control compared to untreated)
[4] = tested on: Mycosphaerella arachidis (Cercospora arachidicola); experiment: Mycosphaerella arachidis (Cercospora arachidicola) / liquid culture (early leaf spot); format: cell-based; settings: PDB potato dextrose broth, 96-well plate, 24° C., 4-5 days after application, read-out: control of Mycosphaerella arachidis (inhibition of growth, photometric)
[5] = tested on: Thanatephorus cucumeris (Rhizoctonia solani); experiment: Thanatephorus cucumeris (Rhizoctonia solani) / liquid culture (foot rot, damping-off); format: cell-based; settings: liquid culture of mycelia fragments, PDB potato dextrose broth, 96-well plate, 24° C., 3-4 days after application, read-out: control of Thanatephorus cucumeris (inhibition of growth, photometric)
Method: Thanatephorus cucumeris (Rhizoctonia solani)/Liquid Culture (Foot Rot, Damping-Off): Mycelia fragments of a newly grown liquid culture of the fungus are directly mixed into nutrient broth (PDB potato dextrose broth). After placing a DMSO solution of the test compounds into a 96-well microtiter plate at an application rate of 200 ppm, the nutrient broth containing the fungal material was added. The test plates were incubated at 24° C. and the inhibition of growth was determined photometrically 3-4 days after application.

[6] = tested on: Puccinia recondita f. sp. tritici; experiment: Puccinia recondita f. sp. tritici / wheat / leaf disc curative (brown rust); format: in vivo; settings: foliar, wheat cv Kanzler leaf segments, applied 1 day after inoculation, assessed 6-8 days after application, read-out: control of Puccinia recondita f. sp. tritici (percent disease control compared to untreated)
Method: Puccinia recondita f. sp. tritici/Wheat/Leaf Disc Curative (Brown Rust): Wheat leaf segments cv Kanzler were placed on agar in 24-well plates. The leaf segments were inoculated with a spore suspension of the fungus. The plates were stored in darkness at 19° C. and 75% relative humidity. The formulated test compound diluted in water was applied at an application rate of 200 ppm 1 day after inoculation.

Pyrenophora teres = Pyrenophora teres / barley / leaf disc preventative (net blotch); format: in vivo; settings: foliar, barley cv Hasso leaf segments, inoculated two days after application, assessed 5-7 days after application, read-out: control of Pyrenophora teres (disease control compared to untreated)
[7] = tested on: Puccinia recondita f. sp. tritici; experiment: Puccinia recondita f. sp. tritici / wheat / leaf disc preventative (brown rust); format: in vivo; settings: foliar, wheat cv Kanzler leaf segments, inoculated 1 day after application, assessed 7-9 days after application, read-out: control of Puccinia recondita f. sp. tritici (percent disease control compared to untreated)
Method: Puccinia recondita f. sp. tritici/Wheat/Leaf Disc Preventative (Brown Rust) Wheat leaf segments cultivated variety (cv) Kanzler were placed on agar in 24-well plates and sprayed with formulated test compound diluted in water at an application rate of 200 ppm. The leaf disks were inoculated with a spore suspension of the fungus 1 day after application. The inoculated leaf segments were incubated at 19° C. and 75% relative humidity under a light regime of 12/12 h (light/dark) in a climate cabinet and the activity of a compound was assessed as percent disease control compared to untreated when an appropriate level of disease damage appears in untreated check leaf segments (7-9 days after application). […].103

[8] = tested on: Blumeria graminis f. sp. tritici (Erysiphe graminis f. sp. tritici); experiment: Blumeria graminis f. sp. tritici (Erysiphe graminis f. sp. tritici) / wheat / leaf disc preventative (powdery mildew on wheat); format: in vivo; settings: foliar, wheat cv. Kanzler leaf segments, inoculated 1 day after application, assessed 6-8 days after application, read-out: control of Blumeria graminis (percent disease control compared to untreated)
[9] = tested on: Glomerella lagenarium (Colletotrichum lagenarium); experiment: Glomerella lagenarium (Colletotrichum lagenarium) / liquid culture (anthracnose); format: cell-based; settings: Colletotrichum orbiculare, PDB potato dextrose broth, 96-well plate, 24° C., 3-4 days after application, read-out: control of Glomerella lagenarium (inhibition of growth, photometric)
[10] = tested on: Phaeosphaeria nodorum (Septoria nodorum); experiment: Phaeosphaeria nodorum (Septoria nodorum) / wheat / leaf disc preventative (glume blotch); format: in vivo; settings: Parastagonospora nodorum, foliar, wheat cv Kanzler leaf segments, inoculated 2 days after application, assessed 5-7 days after application, read-out: control of Phaeosphaeria nodorum (percent disease control compared to untreated)
[11] = tested on: Monographella nivalis (Microdochium nivale); experiment: Monographella nivalis (Microdochium nivale) / liquid culture (foot rot cereals); format: cell-based; settings: PDB potato dextrose broth, 96-well plate, 24° C., 4-5 days after application, read-out: control of Monographella nivalis (inhibition of growth, photometric)
In short: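 Cryostored conidia in potato dextrose broth added to test compound in DMSO at 200 ppm. Incubated at 24° C; growth inhibition read photometrically 4-5 days after application.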

Gaeumannomyces graminis = Gaeumannomyces graminis / liquid culture (take-all of cereals); format: cell-based; settings: liquid culture of mycelial fragments, PDB potato dextrose broth, 96-well plate, 24° C., 4-5 days after application, read-out: control of Gaeumannomyces graminis (inhibition of growth, photometric)

CO/N=C(\C)c1cccc(CCCO/N=C(\C)c2nc(C)cc(C)n2)n1 [P.62, 1-(6-(3-[1-(4,6-dimethyl-pyrimidin-2-yl)-eth-(E)-ylideneaminooxy]-propyl)-pyridin-2-yl)-ethanone O-methyl oxime]
≥ 80%: inhibition at 200 ppm [1] | inhibition at 200 ppm [2] | pest or weed control at 200 ppm [3] | inhibition at 200 ppm [4] | inhibition at 200 ppm [5] | pest or weed control at 200 ppm [6]

CO/N=C(\C)c1cccc(CCCO/N=C2\CCCc3c2nc2ncccc2c3C)n1 [P.72]
≥ 80%: inhibition at 200 ppm [1] | inhibition at 200 ppm [2] | pest or weed control at 200 ppm (Pyrenophora teres) | pest or weed control at 200 ppm [7] | pest or weed control at 200 ppm [3] | pest or weed control at 200 ppm [8] | inhibition at 200 ppm [9] | pest or weed control at 200 ppm [10] | pest or weed control at 200 ppm [6]

C=CCOCCCc1cccc(/C(C)=N/OCCCc2cccc(/C(C)=N/OC)n2)n1 [P.74]
≥ 80%: inhibition at 200 ppm [1] | inhibition at 200 ppm [11] | inhibition at 200 ppm [2] | pest or weed control at 200 ppm (Pyrenophora teres) | pest or weed control at 200 ppm [3] | inhibition at 200 ppm [4] | pest or weed control at 200 ppm [8] | pest or weed control at 200 ppm [10] | inhibition at 200 ppm (Gaeumannomyces graminis)

COCCCc1cccc(/C(C)=N/OCCCc2cccc(/C(C)=N/OC)n2)n1 [P.76]
≥ 80%: inhibition at 200 ppm [1] | inhibition at 200 ppm [11] | inhibition at 200 ppm [2] | pest or weed control at 200 ppm (Pyrenophora teres) | pest or weed control at 200 ppm [3] | inhibition at 200 ppm [4] | inhibition at 200 ppm [9] | pest or weed control at 200 ppm [10] | inhibition at 200 ppm (Gaeumannomyces graminis)

CO/N=C(\C)c1cccc(CCCO/N=C2\CCCc3c2nc2cc(OC)c(OC)cc2c3C)n1 [P.82]
≥ 80%: inhibition at 200 ppm [1] | inhibition at 200 ppm [11] | inhibition at 200 ppm [2] | pest or weed control at 200 ppm (Pyrenophora teres) | pest or weed control at 200 ppm [3] | inhibition at 200 ppm [4] | pest or weed control at 200 ppm [8] | inhibition at 200 ppm [9] | inhibition at 200 ppm [5] | pest or weed control at 200 ppm [10]

CO/N=C(\C)c1cccc(CCCO/N=C2\CCCc3c2nc2ccsc2c3C)n1 [P.88]
≥ 80%: inhibition at 200 ppm [1] | inhibition at 200 ppm [11] | inhibition at 200 ppm [2] | pest or weed control at 200 ppm (Pyrenophora teres) | pest or weed control at 200 ppm [7] | pest or weed control at 200 ppm [3] | inhibition at 200 ppm [4] | pest or weed control at 200 ppm [8] | inhibition at 200 ppm [9] | inhibition at 200 ppm [5] | pest or weed control at 200 ppm [10] | pest or weed control at 200 ppm [6]

CO/N=C(\C)c1cccc(CCCO/N=C2\CCCc3c2nc2ccc(Cl)cc2c3C)n1 [P.91]
≥ 80%: inhibition at 200 ppm [1] | inhibition at 200 ppm [11] | inhibition at 200 ppm [2] | pest or weed control at 200 ppm [7] | pest or weed control at 200 ppm [3] | inhibition at 200 ppm [4] | pest or weed control at 200 ppm [8] | inhibition at 200 ppm [9] | inhibition at 200 ppm [5] | pest or weed control at 200 ppm [10]

CCc1c2c(nc3ccccc13)/C(=N/OCCCc1cccc(/C(C)=N/OC)n1)CCC2 [P.92]
≥ 80%: inhibition at 200 ppm [1] | inhibition at 200 ppm [11] | inhibition at 200 ppm [2] | pest or weed control at 200 ppm (Pyrenophora teres) | pest or weed control at 200 ppm [7] | pest or weed control at 200 ppm [3] | inhibition at 200 ppm [4] | pest or weed control at 200 ppm [8] | inhibition at 200 ppm [9] | inhibition at 200 ppm [5] | pest or weed control at 200 ppm [10] | pest or weed control at 200 ppm [6]

CO/N=C(\C)c1cccc(CCCO/N=C2\CCCc3cc4c(nc32)CCCC4)n1 [P.94]
≥ 80%: inhibition at 200 ppm [1] | inhibition at 200 ppm [11] | inhibition at 200 ppm [2] | pest or weed control at 200 ppm (Pyrenophora teres) | pest or weed control at 200 ppm [7] | pest or weed control at 200 ppm [3] | inhibition at 200 ppm [4] | pest or weed control at 200 ppm [8] | inhibition at 200 ppm [9] | inhibition at 200 ppm [5] | pest or weed control at 200 ppm [10] | inhibition at 200 ppm (Gaeumannomyces graminis) | pest or weed control at 200 ppm [6]

CO/N=C(\C)c1cccc(CCCO/N=C2\CCCc3cc4cc(Cl)ccc4nc32)n1 [P.96]
≥ 80%: inhibition at 200 ppm [1] | inhibition at 200 ppm [11] | inhibition at 200 ppm [2] | pest or weed control at 200 ppm (Pyrenophora teres) | pest or weed control at 200 ppm [3] | inhibition at 200 ppm [4] | pest or weed control at 200 ppm [8] | inhibition at 200 ppm [9] | inhibition at 200 ppm [5] | pest or weed control at 200 ppm [10] | inhibition at 200 ppm (Gaeumannomyces graminis)

CO/N=C(\C)c1cccc(CCCO/N=C2\CCCc3c2nc2ccccc2c3C2CC2)n1 [P.97]
≥ 80%: inhibition at 200 ppm [1] | inhibition at 200 ppm [11] | inhibition at 200 ppm [2] | pest or weed control at 200 ppm (Pyrenophora teres) | pest or weed control at 200 ppm [7] | pest or weed control at 200 ppm [3] | inhibition at 200 ppm [4] | pest or weed control at 200 ppm [8] | inhibition at 200 ppm [9] | pest or weed control at 200 ppm [10] | pest or weed control at 200 ppm [6]

Source: patent US20140309244A1, “NOVEL MICROBIOCIDES” (SYNGENTA PARTICIPATIONS AG, priority 2010, published 2014)
